Each structure is given as a SMILES string.

The data set can be described thus: Dynamic vapor sorption (DVS) moisture sorption isotherm. It counts as physicochemical. The note with it: reversible; from 0 to 90% RH; 25° C. On the procedure: The crystalline Form I provided can be additionally characterized by dynamic vapor sorption (DVS), wherein a sample is subjected to varying conditions of humidity and temperature, and the response of the sample is measured gravimetrically. The result of a DVS analysis particularly can be a dual curve providing sample weight percent as a function of relative humidity (RH) over time, a dual curve providing sample water content as a function of RH over time, a curve providing weight percent in relation to RH, or a curve providing water content in relation to RH. Equipment useful for measuring such data is known in the art, and any such equipment can be used to measure the compounds according to the present disclosure. In certain embodiments, DVS analysis can be carried out by scanning at a series of specific RH values. […]
Sorption isotherms were obtained using a SMS DVS Intrinsic moisture sorption analyser, controlled by DVS Intrinsic Control software v1.0.1.2 (or v 1.0.1.3). […] The relative humidity (RH) was measured by a calibrated Rotronic probe (dynamic range of 1.0-100% RH), located near the sample. The weight change, (mass relaxation) of the sample as a function of % RH was constantly monitored by the microbalance (accuracy±0.005 mg). […]
The sample was recovered after completion of the isotherm and re-analyzed by XRPD.

Regarding `NC(=O)/C(=C/n1cnc(-c2cc(C(F)(F)F)cc(C(F)(F)F)c2)n1)c1cncnc1` [Crystalline Form I, (E)-3-(3-(3,5-bis(trifluoromethyl)phenyl)-1H-1,2,4-triazol-1-yl)-2-(pyrimidin-5-yl)acrylamide], the “water adsorption (dynamic vapor sorption)” value worked out at 0.12 % w/w.

The record behind these values is US12673939B2, “Methods of synthesis of heteroaryl derivatives of triazolyl acrylamides and crystalline forms” (Karyopharm Therapeutics Inc., priority 2021, dated 2026).
